Assay results published in the supplement of paper PMC10331698.
± gives the standard deviation of the averaged measurements.

What was measured:
Test in all cases: level (log10 ratio to DMSO vehicle control); higher = higher biomarker level / cell amount than vehicle control
Settings in all cases: in DMSO
[1] = compound: O=S(=O)(O)CCC(F)(F)C(F)(F)C(F)(F)C(F)(F)C(F)(F)C(F)(F)F [6:2 Fluorotelomer sulfonic acid]
Experimental: (§1)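 BioMAP Diversity Plus panel of 12 human primary cell co-culture systems (3C, 4H, LPS, SAg, BT, BF4T, BE3C, CASM3C, HDF3CGF, KF3CT, MyoF, Mphg). Compounds were added 1 h before stimulation and left for 24 h (MyoF 48 h; BT 72 h for soluble read-outs or 6 d for IgG). Biomarkers were read by ELISA, cytotoxicity by SRB, PBMC viability and proliferation by Alamar Blue. Each well value was divided by the mean of 8 DMSO control wells on the same plate and log10 transformed; duplicate blinded samples were tested at 4 concentrations.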

[2] = compound: COC(=O)C(F)(F)C(F)(F)OC(F)(C(F)(F)F)C(F)(F)OC(F)=C(F)F [Methyl perfluoro(3-(1-ethenyloxypropan-2-yloxy)propanoate)]
Experimental: as §1

[3] = compound: NC(=O)C(F)(F)C(F)(F)C(F)(F)C(F)(F)C(N)=O [Octafluoroadipamide]
Experimental: as §1

[4] = compound: O=S(=O)(F)C(F)(F)C(F)(F)C(F)(F)C(F)(F)C(F)(F)C(F)(F)C(F)(F)C(F)(F)F [Perfluorooctanesulfonyl fluoride]
Experimental: as §1

[5] = compound: FC(F)(F)C(F)(F)C(F)(F)C(F)(F)C(F)(F)C(F)(F)CC1CO1 [3-(Perfluorohexyl)-1,2-epoxypropane]
Experimental: as §1

Test System | level (log10) ([1]; 6700 nM) | level (log10) ([1]; 20000 nM) | level (log10) ([1]; 60000 nM) | level (log10) ([2]; 6700 nM) | level (log10) ([2]; 20000 nM) | level (log10) ([3]; 6700 nM) | level (log10) ([3]; 20000 nM) | level (log10) ([3]; 60000 nM) | level (log10) ([4]; 6700 nM) | level (log10) ([4]; 20000 nM) | level (log10) ([4]; 60000 nM) | level (log10) ([5]; 6700 nM) | level (log10) ([5]; 20000 nM) | level (log10) ([5]; 60000 nM)
LPS:CD106/VCAM-1 | -0.0055 ± 0.067 | -0.0005 ± 0.074 | 0.0115 ± 0.042 | -0.066 ± 0.013 | -0.0805 ± 0.0064 | -0.022 ± 0.047 | -0.0065 ± 0.0092 | 0.008 ± 0.021 | 0.0025 ± 0.011 | -0.0125 ± 0.00071 | 0.007 ± 0.0085 | -0.002 ± 0.011 | -0.0235 ± 0.015 | -0.022 ± 0.017
BE3C:CD54/ICAM-1 | -0.006 ± 0.0085 | -0.0145 ± 0.005 | -0.04 ± 0.023 | -0.0205 ± 0.005 | -0.017 ± 0.0014 | -0.0135 ± 0.025 | -0.0185 ± 0.016 | 0.016 ± 0.034 | -0.0035 ± 0.019 | -0.0055 ± 0.0092 | 0.0045 ± 0.026 | 0.0035 ± 0.00071 | 0 ± 0.0071 | -0.0005 ± 0.005
BF4T:uPA | 0.0085 ± 0.019 | -0.013 ± 0.0028 | -0.001 ± 0.018 | -0.0075 ± 0.0064 | 0.02 ± 0.0028 | -0.0405 ± 0.0092 | -0.0325 ± 0.021 | -0.0165 ± 0.026 | 0.007 ± 0.0028 | 0 ± 0.011 | 0.0095 ± 0.0092 | -0.0045 ± 0.011 | -0.0115 ± 0.0064 | 0.012 ± 0.04
BE3C:CXCL8/IL-8 | 0.021 ± 0.031 | -0.001 ± 0.021 | 0 ± 0.021 | 0.0495 ± 0.0021 | 0.09 ± 0.013 | -0.0565 ± 0.013 | -0.0485 ± 0.026 | -0.034 ± 0.083 | 0.0175 ± 0.0021 | 0.0295 ± 0.011 | 0.0615 ± 0.029 | 0.0215 ± 0.04 | 0.01 ± 0.031 | 0.0605 ± 0.015
LPS:sTNF-alpha | -0.002 ± 0.0042 | 0 ± 0.0057 | 0.0015 ± 0.0092 | 0.0115 ± 0.046 | 0.0395 ± 0.019 | 0.047 ± 0.018 | 0.0355 ± 0.018 | 0.037 ± 0.0042 | -0.009 ± 0.0057 | 0 ± 0.0014 | -0.0015 ± 0.013 | 0.063 ± 0.034 | 0.09 ± 0.0028 | 0.103 ± 0.011
BF4T:CCL2/MCP-1 | 0.0035 ± 0.0064 | -0.024 ± 0.028 | -0.0335 ± 0.069 | 0.041 ± 0.033 | -0.152 ± 0.32 | 0.003 ± 0.011 | -0.0025 ± 0.0064 | -0.02 ± 0.031 | 0.006 ± 0.0071 | -0.0425 ± 0.0064 | -0.0055 ± 0.037 | -0.003 ± 0.028 | -0.007 ± 0.028 | 0.017 ± 0.028
BF4T:IL-1alpha | 0.006 ± 0.0085 | 0.0005 ± 0.0092 | 0.023 ± 0.018 | -0.002 ± 0.0014 | 0.0105 ± 0.023 | 0.007 ± 0.0071 | -0.005 ± 0.0071 | 0.0215 ± 0.018 | -0.0005 ± 0.0064 | -0.0015 ± 0.00071 | 0.0155 ± 0.021 | 0.003 ± 0.0071 | -0.0135 ± 0.005 | 0.013 ± 0.028
BF4T:MMP-9 | -0.0015 ± 0.036 | -0.0095 ± 0.0078 | 0.018 ± 0.024 | -0.0175 ± 0.018 | 0.0125 ± 0.069 | -0.0245 ± 0.005 | -0.016 ± 0.016 | 0.0115 ± 0.046 | 0.007 ± 0.02 | -0.007 ± 0.0099 | 0.015 ± 0.0028 | 0.001 ± 0.0071 | 0.005 ± 0.0071 | 0.023 ± 0.04
SAg:CCL2/MCP-1 | -0.019 ± 0.0085 | -0.015 ± 0.0042 | 0.0035 ± 0.019 | -0.01 ± 0.0085 | 0.011 ± 0.058 | -0.001 ± 0.0071 | 0.002 ± 0.0014 | 0.0105 ± 0.016 | 0.0135 ± 0.0035 | -0.018 ± 0.0042 | 0.0035 ± 0.029 | -0.0075 ± 0.012 | 0.0005 ± 0.0021 | 0.003 ± 0.016
LPS:CD62E/E-Selectin | 0.034 ± 0.021 | 0.007 ± 0.014 | 0.027 ± 0.023 | -0.0165 ± 0.0035 | -0.0085 ± 0.00071 | -0.007 ± 0.02 | -0.0035 ± 0.016 | 0.022 ± 0.0028 | 0.008 ± 0.0028 | 0.0015 ± 0.0064 | -0.002 ± 0.011 | -0.0055 ± 0.029 | 0 ± 0.0042 | 0.0165 ± 0.026
